Like-named read-outs stand apart in the source and are kept apart here.
Experiments:
spasm by histamine = assay: Antispasmodic activity in vitro, spasm by histamine
[1] = Analgesic activity, protection from writhing; assay type: in vivo, mouse; conditions: po, read-out: Analgesic activity, protection from writhing %
spasm by acetylcholine = assay: Antispasmodic activity in vitro, spasm by acetylcholine
granuloma = assay: Granuloma cotton pellet test; conditions: for inhibition in vivo at 200 mg/kg: Rattus norvegicus, po, read-out: % inhibition of granuloma
[2] = Analgesic activity, hot plate test; assay type: in vivo, mouse; conditions: po, read-out: Analgesic activity, increase of reaction time %
[3] = test system: edema induced by formalin; assay: Anti-inflammatory activity, formalin-induced edema; assay type: in vivo, rat; conditions: po; for inhibition in vivo at 500 mg/kg: read-out: % inhibition of edema induced by formalin
[4] = test system: edema induced by carrageenan; assay: Anti-inflammatory activity, carrageenin-induced oedema; assay type: in vivo, rat; conditions: for inhibition in vivo at 500 mg/kg: po, read-out: % inhibition of edema induced by carrageenan
Source text: Beginning, therefore, with D-glucose, we have prepared 1,2:5,6-di-O-isopropylidene-α-D-glucofuranose (II): [drawing 2] as well as 1,2-O-isopropylidene-α-D-glucofuranose and 1,2-O-isopropylidene-3,5,6-tri-O-benzyl-α-D-glucofuranose (1; Glen W. L., Myers G. S., Grant G. A., J. Chem. Soc., 2568/1951; (2) Meyer A. S., Reichstein T., Helv. Chim. Acta, 29, 139/1946; (3) Huber G., Rossi A., Helv. Chim. Acta, 51, 1185/1968) and have compared these compounds with (I) for anti-inflammatory activity against carrageenin-induced oedema (500 mg/kg, p.o. in rats).

edema induced by dextran = assay: Anti-inflammatory activity, dextran-induced edema; assay type: in vivo, rat; conditions: po; for inhibition in vivo at 500 mg/kg: read-out: % inhibition of edema induced by dextran
capillary permeability [5] = conditions: 500 mg/kg p.o. mouse
in vivo = conditions: mouse, in vivo, po
Antipyretic activity = assay type: in vivo, rat; conditions: for Antipyretic activity (potency in comparison with aspirin = 100): 400 mg/kg p.o. rat; for Antipyretic action (in words): rat, in vivo
capillary permeability [6] = assay: Capillary permeability test
[7] = test system: spasms induced by histamine and acetylcholine; assay: Antispasmodic activity tests in vitro (overall)
[8] = background; cited from earlier work
[9] = Analgesic action (overall); conditions: mouse, in vivo
mouse = assay: in vivo; conditions: oral route, even at a dose of 4,000 mg./kg.
[10] = test system: oedema induced by carrageenin, dextran and formalin; assay: Anti-inflammatory activity tests (oedema by carrageenin, dextran and formalin); assay type: in vivo; conditions: rat
[11] = Preliminary pharmacological screening (overall); assay type: in vivo
[12] = test system: edema induced by carrageenan; assay: Anti-inflammatory activity, carrageenin-induced oedema; assay type: in vivo; conditions: po; at a dose of 200 mg/kg p.o., rat (footnote e)
[13] = at a dose of 400 mg/kg p.o., mouse (footnote d)
[14] = 500 mg/kg p.o. mouse, hot plate test
[15] = at a dose of 200 mg/kg p.o., rat (footnote e)

Row | SMILES | Antispasmodic activity in vitro, ED50, inhib. of spasm by histamine (spasm by histamine) | Antispasmodic activity in vitro, ED50, inhib. of spasm by acetylcholine (spasm by acetylcholine) | inhibition in vivo at 200 mg/kg (granuloma) | LD50 (in vivo) | Antipyretic activity (potency in comparison with aspirin = 100) (Antipyretic activity) | Antipyretic action (in words) (Antipyretic activity) | inhibition in vivo at 500 mg/kg ([1]; 500 mg/kg p.o. mouse) | change in vivo at 500 mg/kg [2, 14] | inhibition in vivo at 500 mg/kg ([3]; 500 mg/kg p.o. rat) | inhibition in vivo at 500 mg/kg ([4]; 500 mg/kg p.o. rat) | inhibition in vivo at 500 mg/kg (edema induced by dextran; 500 mg/kg p.o. rat) | Capillary permeability, decrease % (capillary permeability [6]; 500 mg/kg p.o. mouse) | Oral toxicity / tolerance (in words) (mouse) | also measured
1 | CC1(C)OCC(C2OC3OC(C)(C)OC3C2O)O1 (stereo not drawn) | > 100 µg/mL | > 100 µg/mL | 0% | 4000 mg/kg | 63% | present |  |  |  |  |  |  |  | inhibition in vivo at 500 mg/kg ([1]; Mus musculus): 20%; change in vivo at 500 mg/kg ([2]; Mus musculus): 0%; inhibition in vivo at 500 mg/kg ([3]; Rattus norvegicus): 19%; inhibition in vivo at 500 mg/kg ([4]; Rattus norvegicus): 33%; Anti-inflammatory activity compared with (I), preliminary tests ([4]; carrageenin-induced oedema, 500 mg/kg, p.o. in rats): fully comparable with that of (I); inhibition in vivo at 500 mg/kg (edema induced by dextran; Rattus norvegicus): 0%; Capillary permeability, decrease % (capillary permeability [5]): 46%
2 | CC(=O)Oc1ccccc1C(=O)O [Aspirin, reference compound] | > 100 µg/mL | > 100 µg/mL | 12% | 1000 mg/kg |  |  | 100% | 70% | 29% | 53% | 47% |  |  | Capillary permeability, decrease % (capillary permeability [6]; [13]): 73%; Antispasmodic activity (in words) [7]: inactive
3 | CCOC1O[C@H]([C@@H](COCc2ccccc2)OCc2ccccc2)[C@H](OCc2ccccc2)[C@H]1O (stereo partly drawn) [I, ethyl 3,5,6-tri-O-benzyl-D-glucofuranoside, reference compound] | 20 µg/mL | 30 µg/mL | 0% | > 4000 mg/kg | 9% | little or no activity | 0% | 10% | 14% | 20% | 0% | 48% | well tolerated | Known pharmacological activity (in words) [8]: anti-inflammatory and anti-allergic activity; Analgesic action (in words) [9]: moderate or nil
4 | C=CCOC1C(C2COC(C)(C)O2)OC2OC(C)(C)OC21 [IX, 3-O-allyl-1,2:5,6-di-O-isopropylidene-α-D-glucofuranose] | 60 µg/mL | 60 µg/mL | 16% | > 4000 mg/kg | 44% | retained | 20% | 0% | 29% | 68% | 39% | 43% | well tolerated | Anti-inflammatory potency compared with aspirin and phenylbutazone (in words) [10]: as potent as or more potent than aspirin and phenylbutazone; Inhibition of oedema induced by carrageenin, dextran and formalin, compared with (I) (in words) [10]: clearly more active than (I); Activity against spasms produced by acetylcholine (in words) (spasm by acetylcholine): moderately active; Spectrum and potency of action in comparison with (I) (in words) [11]: analogous or even better spectrum and potency of action; Inhibitory activity in the granuloma cotton pellet test (in words) (granuloma; rat, in vivo): some inhibitory activity
5 | CCCCC1C(=O)N(c2ccccc2)N(c2ccccc2)C1=O [Phenylbutazone, reference compound] | > 100 µg/mL | > 100 µg/mL | 31% |  | 85% |  | 100% | 10% |  |  |  |  |  | Capillary permeability, decrease % (capillary permeability [6]; [13]): 75%; Antispasmodic activity (in words) [7]: inactive; inhibition in vivo at 200 mg/kg [12]: 52%; inhibition in vivo at 200 mg/kg [3, 15]: 13%; inhibition in vivo at 200 mg/kg (edema induced by dextran; [15]): 15%
6 | CCCCCCCCCCCCCCCCOC1C(C2COC(C)(C)O2)OC2OC(C)(C)OC21 (stereo not drawn) [VIII] |  |  |  | > 4000 mg/kg | 0% |  | 20% | 0% | 0% | 13% | 0% | 22% | well tolerated | 
7 | CC(=O)OC1C(C2COC(C)(C)O2)OC2OC(C)(C)OC21 [XII, 3-Acetyl-1,2:5,6-di-O-isopropylidene-α-D-glucofuranose] | > 100 µg/mL | > 100 µg/mL |  | > 4000 mg/kg | 0% |  | 0% | 20% | 9% | 21% | 0% | 26% | well tolerated | 
8 | CC1(C)OCC(C2OC3OC(C)(C)OC3C2OCc2ccccc2)O1 (stereo not drawn) [XI] | > 100 µg/mL | > 100 µg/mL |  | > 4000 mg/kg | 8% |  | 20% | 0% | 21% | 39% | 0% | 29% | well tolerated | 
